These results are taken from patent US5541169A, “Azoxy compound” (Kowa Company, Ltd., priority 1992, dated 1996).

Data set [1] is described as follows: Stability in ethanol (residual ratio by HPLC). Particulars: 50% ethanol, 50% ethanol solution, 0.01%; for remaining at 2160 h: 3 months; for remaining at 288 h: 12 days. In kind it is physicochemical. Here is the method: The residual ratio was determined under the following conditions by the HPLC method.
*Measured in a 50% ethanol solution (sample concentration: 0.01%)
Column: STR ODSM 4.6 × 150 mm
Injection volume: 40 μl
Mobile phase: CH3 CN:H2 O (1:1)
Temperature: room temperature

For the next data set, the system named is Microsporum canis. The experiment in a line: Minimum inhibitory concentration, agar plate dilution method (Sabouraud dextrose medium). In kind it is cell-based. Particulars: M.c. As for the experimental part:
(§1) The minimum inhibition concentration was assayed by the agar plate dilution method using Sabouraud dextrose medium.

For another data set, the system named is Trichophyton rubrum. Described as above. Particulars: T.r. The format is cell-based. Here is the method:
as §1

Data set [2] concerns Trichophyton mentagrophytes. Described as above. The format is cell-based. Particulars: T.m. Here is the method: as §1
A further data set has as its system Candida albicans. The description is as above. In kind it is cell-based. Particulars: C.a. Here is the method: as §1
In a further data set the test system is fungi. Particulars: prior-art compounds; cited from earlier work.
The conditions of data set [3]: prior-art compounds; cited from earlier work.

≈ marks a conversion by molar mass, not a printed value.

A word on the MIC: it is the lowest concentration that inhibits growth of the organism. Low values mean a more susceptible organism, high ones a less susceptible organism. As for `C[C@H](N=[N+]([O-])C=Cc1ccc(OCC#CI)cc1)[C@@H](C)O` [5 (2R), 2(R)-3(S)-3-(4-(3-iodo-2-propynyloxy)styryl-ONN-azoxy)-2-butanol], the amount remaining at 2160 h stood at 99.6% in data set [1] (4° C.); 99.3% in data set [1] (25° C.); 92.7% in data set [1] (40° C.); 101% in data set [1] (pH 4, pH 4, 40° C.); 101% in data set [1] (pH 6, pH 6, 40° C.); 83.6% in data set [1] (pH 8, pH 8, 40° C.). The MIC against Microsporum canis came out at 1.6 µg/mL (≈ 4 µM); in the data set with Trichophyton rubrum, 1.6 µg/mL (≈ 4 µM); in data set [2], 0.8 µg/mL (≈ 2 µM); in the data set on Candida albicans, 12.5 µg/mL (≈ 31.2 µM).

On to `C[C@H](O)[C@H](C)N=[N+]([O-])C=Cc1ccc(OCC#CI)cc1` [5 (2S), 2(S)-3(S)-3-(4-(3-iodo-2-propynyloxy)styryl-ONN-azoxy)-2-butanol], for which the amount remaining at 2160 h amounted to 99.8% in data set [1] (4° C.); 97.4% in data set [1] (25° C.); 86.1% in data set [1] (40° C.); 100% in data set [1] (pH 4, pH 4, 40° C.); 99.1% in data set [1] (pH 6, pH 6, 40° C.); 74.2% in data set [1] (pH 8, pH 8, 40° C.). Also, the MIC is 1.6 µg/mL (≈ 4 µM) against Microsporum canis, 1.6 µg/mL (≈ 4 µM) in the data set with Trichophyton rubrum, 0.8 µg/mL (≈ 2 µM) in data set [2] and 6.3 µg/mL (≈ 15.7 µM) in the data set on Candida albicans.

For `CC(=NO)[C@H](C)N=[N+]([O-])/C=C/c1ccc(OCC#CI)cc1` [Control, reference compound], the amount remaining at 288 h came to 99.3% in data set [1] (4° C.); 95.8% in data set [1] (25° C.); 96.6% in data set [1] (40° C.); 0% in data set [1] (pH 4, pH 4, 40° C.); 79.7% in data set [1] (pH 6, pH 6, 40° C.); 91.4% in data set [1] (pH 8, pH 8, 40° C.).

On to `CC(=C[N+]([O-])=NC(C)COCC#CI)c1ccc(Cl)cc1` (centres unmarked) [Example 1, 2-(2-(4-chlorophenyl)-1-propenyl-ONN-azoxy)-1-(3-iodo-2-propynyloxy)propan], for which the MIC with Microsporum canis was found to be 1.6 µg/mL (≈ 3.82 µM); against Trichophyton rubrum it was 0.8 µg/mL (≈ 1.91 µM); in data set [2] it was 0.4 µg/mL (≈ 0.955 µM); against Candida albicans, 50 µg/mL (≈ 119 µM).

For the molecule `CC(=C[N+]([O-])=NC(C)C(C)OCC#CI)c1ccccc1Cl` (centres unmarked) [Example 2, 3-(2-(2-chlorophenyl)-1-propenyl-ONN-azoxy)-2-(3-iodo-2-propynyloxy)butane], the minimal inhibitory concentration (MIC) in the data set with Microsporum canis stood at 1.6 µg/mL (≈ 3.7 µM); in the data set with Trichophyton rubrum, 1.6 µg/mL (≈ 3.7 µM); in data set [2], 1.6 µg/mL (≈ 3.7 µM); with Candida albicans, 50 µg/mL (≈ 116 µM).

For the molecule `C#CCOc1ccc(C=C[N+]([O-])=NC(C)C(C)O)cc1` (centres unmarked) [Example 3, 3-(4-(2-propynyloxy)styryl-ONN-azoxy)-2-butanol], the minimum inhibitory concentration (MIC) worked out at 0.2 µg/mL (≈ 0.729 µM) in the data set with Microsporum canis, 0.2 µg/mL (≈ 0.729 µM) against Trichophyton rubrum and 25 µg/mL (≈ 91.1 µM) against Candida albicans.

`CC(O)C(C)N=[N+]([O-])c1ccc(OCC#CI)cc1` (centres unmarked) [Example 11, 3-(4-(3-iodo-2-propynyloxy)phenyl-ONN-azoxy)-2-butanol]: the MIC against Microsporum canis was found to be 0.8 µg/mL (≈ 2.14 µM); against Trichophyton rubrum, 1.6 µg/mL (≈ 4.28 µM); in data set [2] it was 1.6 µg/mL (≈ 4.28 µM); against Candida albicans, 6.3 µg/mL (≈ 16.8 µM).

`C[C@H](N=[N+]([O-])c1ccc(OCC#CI)cc1)[C@@H](C)O` [Example 17, 2(R)-3(S)-3-(4-(3-iodo-2-propynyloxy)phenyl-ONN-azoxy)-2-butanol]: the amount remaining at 2160 h in data set [1] (4° C.) worked out at 100%; in data set [1] (25° C.), 99.4%; in data set [1] (40° C.), 100%; in data set [1] (pH 4, pH 4, 40° C.), 100%; in data set [1] (pH 6, pH 6, 40° C.), 99.9%; in data set [1] (pH 8, pH 8, 40° C.), 100%. The share remaining at 288 h came to 100% in data set [1] (4° C.); 102% in data set [1] (25° C.); 99.8% in data set [1] (40° C.); 99.7% in data set [1] (pH 4, pH 4, 40° C.); 100% in data set [1] (pH 6, pH 6, 40° C.); 100% in data set [1] (pH 8, pH 8, 40° C.). The MIC with Microsporum canis stood at 0.8 µg/mL (≈ 2.14 µM); in the data set with Trichophyton rubrum it was 1.6 µg/mL (≈ 4.28 µM); in data set [2], 1.6 µg/mL (≈ 4.28 µM); with Candida albicans it was 6.3 µg/mL (≈ 16.8 µM).

In the case of `CCCC/C=C/[N+]([O-])=N[C@@H](C)C(C)=O` [KA-7367A], in the data set on fungi, the “antifungal activity (in words)” value is recorded as “excellent antifungal activity”. Moreover, the “stability (in words)” value in data set [3] is recorded as “unstable”.
